{"source": "paper PMC3592886", "about": "“Utilization of Quantitative In Vivo Pharmacology Approaches to Assess Combination Effects of Everolimus and Irinotecan in Mouse Xenograft Models of Colorectal Cancer” (PLoS ONE, 2013)", "key": {"HCT8 cells": {"system": "HCT8 cells", "experiment": "Sulforhodamine B (SRB) anti-proliferation assay, HCT8", "format": "cell-based", "settings": "RAD (20 nM), SN38 (4 nM) or the combination of the two, Figure 2", "procedure": "Cytoxic effects were determined using the sulforhodamine B (SRB) assay. Briefly, 5000 viable cells were plated into 96-well plates and incubated overnight prior to exposure with different concentrations of drugs. Cells were exposed to increasing concentrations of everolimus (0–200 nM), SN38 (0–8 nM), and combinations of the two. Following a 72 hour incubation, media was removed and cells were fixed with cold 10% trichloroacetic acid for 30 minutes at 4° C. Cells were washed with water and stained with 0.4% SRB for 30 minutes at room temperature. Cells were washed again with 1% acetic acid and stain was solubilized with 10 mM tris at room temperature and read at an OD of 565 nm. […] The resulting Combination Index (CI) was used as a quantitative measure of the degree of interaction between different drugs. A CI value equal to 1 denotes additivity; CI greater than 1, antagonism; CI less than 1, synergism."}, "HCT116 tumor xenografts": {"system": "HCT116 tumor xenografts", "parameters": "method as in PMID 19223496, PMID 20124452", "settings": "everolimus at 10–12 mg/kg, mice bearing HCT116 tumor xenografts; cited from earlier work"}}}
{"compound": "CO[C@H]1C[C@@H]2CC[C@@H](C)[C@@](O)(O2)C(=O)C(=O)N2CCCC[C@H]2C(=O)O[C@H]([C@H](C)C[C@@H]2CC[C@@H](OCCO)[C@H](OC)C2)CC(=O)[C@H](C)/C=C(\\C)[C@@H](O)[C@@H](OC)C(=O)[C@H](C)C[C@H](C)/C=C/C=C/C=C/1C", "note": "[Everolimus, 40-O-(2-hydroxyethyl)-rapamycin]", "values": [{"measurement": "%Growth Inhibition", "setting": "HCT8 cells", "result": 59, "unit": "%"}, {"measurement": "tumor growth inhibition, single agent", "setting": "HCT116 tumor xenografts", "result": "45–55%"}]}
